As a reminder, the IC50 is the point on the concentration scale where inhibition reaches its midpoint.

Experiment [1] concerns the target T1, Spermidine synthase (Trypanosoma cruzi (strain CL Brener), UniProt Q4CXJ6).
T1 sequence (Q4CXJ6 whole entry): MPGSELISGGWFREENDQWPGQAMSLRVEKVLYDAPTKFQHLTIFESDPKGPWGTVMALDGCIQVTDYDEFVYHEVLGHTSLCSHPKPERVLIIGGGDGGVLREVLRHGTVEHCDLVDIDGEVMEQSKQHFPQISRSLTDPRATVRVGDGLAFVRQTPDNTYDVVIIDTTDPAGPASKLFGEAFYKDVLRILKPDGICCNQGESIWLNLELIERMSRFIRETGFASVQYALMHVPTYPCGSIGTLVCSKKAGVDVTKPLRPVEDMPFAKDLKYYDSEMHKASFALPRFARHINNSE
Nature of the experiment: Inhibition of Trypanosoma cruzi strain CL Brener N-terminal poly-His tagged spermidine synthase expressed in Escherichia coli BL21(DE3) using 50 uM putrescine as substrate in presence of 100 uM dcSAM incubated for 1 hr by NMR analysis based constant-time batch reaction assay.

Experiment [2] concerns the target T2, Spermidine synthase (Sus scrofa, UniProt Q6QA75).
T2 sequence (Q6QA75 whole entry): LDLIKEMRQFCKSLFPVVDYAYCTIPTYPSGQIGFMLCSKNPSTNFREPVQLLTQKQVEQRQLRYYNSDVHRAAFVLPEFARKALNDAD
Briefly: Inhibition of porcine spermidine synthase assessed as production of labeled 5'-methylthioadenosine using putrescine as substrate by enzymatic assay in presence of 10 uM decarboxylated AdoMet.

Experiment [3] addresses T1, Spermidine synthase.
Description: Inhibition of Trypanosoma cruzi strain CL Brener N-terminal poly-His tagged spermidine synthase expressed in Escherichia coli BL21(DE3) using 0.5 mM putrescine as substrate in presence of 1 mM dcSAM by FA-real time NMR analysis

As for `NC1=Nc2ccccc2SC1`, in experiment [1], the IC50 worked out at 100000 nM.
On to `C[C@H]1CC[C@H](N)CC1`, for which the IC50 in experiment [1] stood at 93 nM; in experiment [2] it was 1700 nM; in experiment [3], 620 nM.

Source of the values: ChEMBL document CHEMBL3779867, “An NMR Biochemical Assay for Fragment-Based Drug Discovery: Evaluation of an Inhibitor Activity on Spermidine Synthase of Trypanosoma cruzi” (J Med Chem, 2016).
